Test results reported in patent US12448388B2, “PRMT5 inhibitors and uses thereof” (Gilead Sciences, Inc., priority 2023, dated 2025).
Read-outs that look alike come from different tables or passages of the source.

Test system: HCT116 MTAP-deleted cell lines
Assay: Cell viability assay (CellTiter-Glo, 7 days), HCT116 MTAP-deleted
Assay type: cell-based
Details: Homo sapiens, HCT-116, HCT116 MTAP-deleted, class symbols, read-out: CC50
Summary of the method: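 Read-out was CellTiter-Glo luminescence after a 7-day incubation (37 °C, 5% CO2) of HCT116 cells, MTAP-deleted or WT, on dose-response compound plates. CC50 values come from each line; where marked *, selectivity is overstated because poor solubility impaired the WT CC50 measurement.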

CN(C(=O)c1cc2c(cn1)nc(N)c1cncn12)[C@@H]1COc2cc(OC(F)(F)F)ccc21 [Ff-565, (S)-4-amino-N-methyl-N-(6-(trifluoromethoxy)-2,3-dihydrobenzofuran-3-yl)imidazo[1,5-a]pyrido[3,4-e]pyrazine-8-carboxamide]
CC50 (cell viability assay): 0.1 to 1 µM

C[C@H]1CN(C(=O)c2ccc3nc(N)c4cncn4c3c2)[C@H]2c3ccc(C(F)(F)F)cc3C[C@H]2O1 [Ff-89, (4-aminoimidazo[1,5-a]quinoxalin-8-yl)((2S,4aS,9aR)-2-methyl-7-(trifluoromethyl)-2,3,9,9a-tetrahydroindeno[2,1-b][1,4]oxazin-4(4aH)-yl)methanone]
CC50 (cell viability): < 0.1 µM

Nc1nc2cc(F)c(C(=O)N(Cc3ccc(C(F)(F)F)cc3F)c3cnn(C4CC4)c3)cc2n2cncc12 [Ff-276, 4-amino-N-(1-cyclopropyl-1H-pyrazol-4-yl)-7-fluoro-N-(2-fluoro-4-(trifluoromethyl)benzyl)imidazo[1,5-a]quinoxaline-8-carboxamide]
CC50 (cell viability): < 0.1 µM

Nc1nc2cc(F)c(C(=O)N(Cc3ccc(C(F)(F)F)cc3F)c3ncco3)cc2n2cncc12 [Ff-226, 4-amino-7-fluoro-N-(2-fluoro-4-(trifluoromethyl)benzyl)-N-(oxazol-2-yl)imidazo[1,5-a]quinoxaline-8-carboxamide]
CC50 (cell viability): < 0.1 µM

Nc1nc2cnc(C(=O)N3CCC[C@@H]4Cc5cc(C(F)(F)F)ccc5[C@@H]43)cc2n2cncc12 (racemic) [Ff-250, Rac-(4-aminoimidazo[1,5-a]pyrido[3,4-e]pyrazin-8-yl)((4aR,9bR)-7-(trifluoromethyl)-2,3,4,4a,5,9b-hexahydro-1H-indeno[1,2-b]pyridin-1-yl)methanone]
CC50 (cell viability): < 0.1 µM

Cn1cc(N(Cc2ccc(-c3cnn(C(F)(F)F)c3)cc2F)C(=O)c2cc3c(cc2F)nc(N)c2cncn23)cn1 [Ff-220, 4-amino-7-fluoro-N-(2-fluoro-4-(1-(trifluoromethyl)-1H-pyrazol-4-yl)benzyl)-N-(1-methyl-1H-pyrazol-4-yl)imidazo[1,5-a]quinoxaline-8-carboxamide]
CC50 (cell viability): < 0.1 µM

N#C[C@@H]1C[C@H]1c1ccc2c(c1)C[C@H]1OCCN(C(=O)c3cc4c(cc3F)nc(N)c3cncn34)[C@@H]21 [Ff-448, Trans-2-[(4aS,9aR)-4-(4-amino-7-fluoro-imidazo[1,5-a]quinoxaline-8-carbonyl)-3,4a,9,9a-tetrahydro-2H-indeno[2,1-b][1,4]oxazin-7-yl]cyclopropanecarbonitrile]
CC50 (cell viability assay): < 0.1 µM

Cn1cc(N(Cc2ncc(C(F)(F)F)cc2F)C(=O)c2cc3c(cc2F)nc(N)c2cncn23)cn1 [Ff-290, 4-amino-7-fluoro-N-((3-fluoro-5-(trifluoromethyl)pyridin-2-yl)methyl)-N-(1-methyl-1H-pyrazol-4-yl)imidazo[1,5-a]quinoxaline-8-carboxamide]
CC50 (cell viability): < 0.1 µM

Nc1nc2cc(F)c(C(=O)N3CCO[C@@H]4Cc5cc(F)ccc5[C@@H]43)cc2n2cncc12 (single isomer, unassigned) [Ff-467]
CC50 (cell viability assay): < 0.1 µM

Nc1nc2cc(F)c(C(=O)N3CCO[C@H]4Cc5cc(Br)ccc5[C@H]43)cc2n2cncc12 (single isomer, unassigned) [Ff-75]
CC50 (cell viability): 0.1 to 1 µM

Nc1nc2cnc(C(=O)N3CCOC[C@@H]3c3ccc(C(F)(F)F)cc3)cc2n2cncc12 [Ff-86, (S)-(4-aminoimidazo[1,5-a]pyrido[3,4-e]pyrazin-8-yl)(3-(4-(trifluoromethyl)phenyl)morpholino)methanone]
CC50 (cell viability): < 0.1 µM

CN(C(=O)c1cc2c(cc1F)nc(N)c1cncn12)[C@@H]1COCc2cc(-c3cnn(C(F)F)c3)ccc21 [Ff-292, (S)-4-amino-7-fluoro-N-methyl-N-(7-(1-(difluoromethyl)-1H-pyrazol-4-yl)isochroman-4-yl)imidazo[1,5-a]quinoxaline-8-carboxamide]
CC50 (cell viability): < 0.1 µM

Cc1ncc2c3cc(C(=O)N(Cc4ccc(C(F)(F)F)cn4)[C@H](C)c4ncccn4)c(F)cc3nc(N)n12 [Fg-17, (R)-5-amino-8-fluoro-3-methyl-N-(1-(pyrimidin-2-yl)ethyl)-N-((5-(trifluoromethyl)pyridin-2-yl)methyl)imidazo[1,5-c]quinazoline-9-carboxamide]
CC50 (cell viability assay): < 0.1 µM

CN(C(=O)c1cc2c(cc1F)nc(N)c1cncn12)[C@H]1c2ccc(-c3cnn(C(F)F)c3)cc2C[C@H]1OC(F)F [Ff-583, 4-amino-N-((1S,2R)-2-(difluoromethoxy)-5-(1-(difluoromethyl)-1H-pyrazol-4-yl)-2,3-dihydro-1H-inden-1-yl)-7-fluoro-N-methylimidazo[1,5-a]quinoxaline-8-carboxamide]
CC50 (cell viability assay): 0.1 to 1 µM

Cc1ncn2c1c(N)nc1cnc(C(=O)N3CC4(CC4)C[C@@H]4Oc5cc(C(F)(F)F)ccc5[C@@H]43)cc12 [Fg-36, (4-amino-3-methylimidazo[1,5-a]pyrido[3,4-e]pyrazin-8-yl)((4aS,9bS)-7-(trifluoromethyl)-4a,9b-dihydro-2H-spiro[benzofuro[3,2-b]pyridine-3,1′-cyclopropan]-1(4H)-yl)methanone]
CC50 (cell viability assay): < 0.1 µM

Nc1nc2cc(Cl)c(C(=O)N3CC[C@H]4C[C@@H]3c3ccc(C(F)(F)F)cc3O4)cc2n2cncc12 [Ff-370, (4-amino-7-chloroimidazo[1,5-a]quinoxalin-8-yl)((2S,6R)-9-(trifluoromethyl)-3,4-dihydro-2H-2,6-methanobenzo[b][1,5]oxazocin-5(6H)-yl)methanone]
CC50 (cell viability assay): < 0.1 µM

C[C@H]1CN(C(=O)c2cc3c(cc2F)nc(N)c2cncn23)[C@H]2c3cc(F)c(OC(F)(F)F)cc3C[C@H]2O1 (single isomer, unassigned) [Ff-198]
CC50 (cell viability): < 0.1 µM

Nc1nc2cc(Cl)c(C(=O)N3CC[C@H]4C[C@@H]3c3ccc(Cl)c(F)c34)cc2n2cncc12 [Ff-489, (4-amino-7-chloroimidazo[1,5-a]quinoxalin-8-yl)((1R,5S)-7-chloro-6-fluoro-1,3,4,5-tetrahydro-2H-1,5-methanobenzo[c]azepin-2-yl)methanone]
CC50 (cell viability assay): 0.1 to 1 µM

CN(Cc1ccn(-c2ccccc2)n1)C(=O)c1cc2c(cc1F)nc(N)c1cncn12 [Ff-454, 4-amino-7-fluoro-N-methyl-N-((1-phenyl-1H-pyrazol-3-yl)methyl)imidazo[1,5-a]quinoxaline-8-carboxamide]
CC50 (cell viability assay): 0.1 to 1 µM

C[C@H]1CN(C(=O)c2cc3c(cc2F)nc(N)c2cncn23)[C@H]2c3cc(F)c(C(F)(F)F)cc3C[C@H]2O1 (single isomer, unassigned) [Ff-329]
CC50 (cell viability): < 0.1 µM

Nc1nc2cc(F)c(C(=O)N3CCC[C@@H]4Oc5cc(OC(F)(F)F)ccc5[C@@H]43)cc2n2cncc12 (single isomer, unassigned) [Ff-395]
CC50 (cell viability assay): < 0.1 µM

CC1(C)C[C@@H]2Oc3cc(OC(F)(F)F)ccc3[C@@H]2N(C(=O)c2cc3c(cn2)nc(N)c2cncn23)C1 (racemic) [Ff-262, Rac-(4-aminoimidazo[1,5-a]pyrido[3,4-e]pyrazin-8-yl)((4aS,9bS)-3,3-dimethyl-7-(trifluoromethoxy)-3,4,4a,9b-tetrahydrobenzofuro[3,2-b]pyridin-1(2H)-yl)methanone]
CC50 (cell viability): 0.1 to 1 µM

C[C@@H]1CN(C(=O)c2cc3c(cc2F)nc(N)c2cncn23)[C@@H](c2ccc(C(F)(F)F)cn2)CO1 [Ff-129, (4-amino-7-fluoroimidazo[1,5-a]quinoxalin-8-yl)((2R,5S)-2-methyl-5-(5-(trifluoromethyl)pyridin-2-yl)morpholino)methanone]
CC50 (cell viability): < 0.1 µM

CN(C(=O)c1cc2c(cc1Cl)nc(N)c1cncn12)[C@@H]1COc2cc([C@@H]3C[C@H]3C#N)c(F)cc21 [Ff-443, Trans-4-amino-7-chloro-N-[(3S)-6-(2-cyanocyclopropyl)-5-fluoro-2,3-dihydrobenzofuran-3-yl]-N-methyl-imidazo[1,5-a]quinoxaline-8-carboxamide]
CC50 (cell viability assay): < 0.1 µM

CN(C(=O)c1cc2c(cc1F)nc(N)c1cncn12)[C@@H]1COc2cc(C#CC3CC(F)(F)C3)ccc21 [Ff-525, (S)-4-amino-N-(6-((3,3-difluorocyclobutyl)ethynyl)-2,3-dihydrobenzofuran-3-yl)-7-fluoro-N-methylimidazo[1,5-a]quinoxaline-8-carboxamide]
CC50 (cell viability assay): 0.1 to 1 µM

C[C@H](c1ncc(C(F)(F)F)cc1F)N(C)C(=O)c1cc2c(cc1F)nc(N)c1cncn12 [Ff-537, (R)-4-amino-7-fluoro-N-(1-(3-fluoro-5-(trifluoromethyl)pyridin-2-yl)ethyl)-N-methylimidazo[1,5-a]quinoxaline-8-carboxamide]
CC50 (cell viability assay): < 0.1 µM

C[C@@H]1CN(C(=O)c2ccc3nc(N)c4cncn4c3c2)[C@H]2c3cc(F)c(OC(F)(F)F)cc3C[C@H]2O1 (single isomer, unassigned) [Ff-628]
CC50 (cell viability assay): < 0.1 µM

C[C@@H]1C[C@@H]2Oc3cc(C(F)(F)F)c(F)cc3[C@@H]2N(C(=O)c2cc3c(cc2F)nc(N)c2cncn23)C1 [Ff-248, (4-amino-7-fluoroimidazo[1,5-a]quinoxalin-8-yl)((3R,4aS,9bS)-8-fluoro-3-methyl-7-(trifluoromethyl)-3,4,4a,9b-tetrahydrobenzofuro[3,2-b]pyridin-1(2H)-yl)methanone]
CC50 (cell viability): < 0.1 µM

Cc1ncn2c1c(N)nc1ccc(C(=O)N3C[C@@H](C)O[C@@H]4Cc5cc(OC(F)(F)F)ccc5[C@@H]43)cc12 (single isomer, unassigned) [Fg-22]
CC50 (cell viability assay): < 0.1 µM

CCN(C(=O)c1cc2c(cc1F)nc(N)c1cncn12)[C@H](C)c1ncc(C(F)(F)F)cc1F [Ff-538, (R)-4-amino-N-ethyl-7-fluoro-N-(1-(3-fluoro-5-(trifluoromethyl)pyridin-2-yl)ethyl)imidazo[1,5-a]quinoxaline-8-carboxamide]
CC50 (cell viability assay): < 0.1 µM

C[C@@H]1OCCN(C(=O)c2cc3c(cc2F)nc(N)c2cncn23)[C@H]1c1ccc(C(F)(F)F)cn1 [Ff-132, (4-amino-7-fluoroimidazo[1,5-a]quinoxalin-8-yl)((2S,3S)-2-methyl-3-(5-(trifluoromethyl)pyridin-2-yl)morpholino)methanone]
CC50 (cell viability): < 0.1 µM
